{"source": "patent EP3838286B1", "about": "“ANTIMICROBIAL PEPTIDE FROM POLISTES GALLICUS VENOM AND ITS ANALOGS” (Latoxan, priority 2019, dated 2021)", "key": {"human erythrocytes": {"system": "human erythrocytes", "experiment": "Hemolytic activity assay", "type": "cell-based", "experimental": "The hemolytic activity of each peptide was determined by the leakage of hemoglobin from human erythrocytes (obtained from Divbioscience, NL) as previously described (Oyama et al., 2017 Biofilms Microbiomes, Dec 1;3:33).\nBriefly, human erythrocytes were washed 3 times with phosphate buffer saline (PBS) and concentrated using centrifugation at 800 g for 5 min. Human erythrocytes were then resuspended in PBS at a final concentration of 8 %. 100 µl of human erythrocytes were then added per well of sterile 96 well microplate already containing 15 µl of serially diluted antimicrobials (1:2 in distilled water). After 1 h at 37°C, the microplate was centrifuged at 800 g for 5 min. 100 µl were then carefully collected and transferred to a new 96 well microplate and OD was measured at 405 nm. Hemolysis caused by peptides was expressed as percentage of hemolysis; Triton-X100 at 0.1 % (v:v) was used as positive control and gave 100 % hemolysis. Hemolysis rate was determined as below: Hemolysis rate (%) = (A−A2)/(A1−A2) × 100% [formula] where A is the absorbance of indicator mixtures with different factors, A1 and A2 are the positive control, and the negative control, respectively."}, "E. coli [1]": {"system": "E. coli"}, "P. aeruginosa [2]": {"system": "P. aeruginosa"}, "[3]": {"system": "Gram-positive and Gram-negative bacteria"}, "[4]": {"system": "HeLa TLR4/IL-8 Renilla Luciferase Reporter cell line", "experiment": "Anti-inflammatory activity (LPS stimulation, luciferase reporter)", "type": "cell-based", "details": "10 ng/mL LPS from P. aeruginosa; 6 h incubation; read-out: IC50 (inhibition of LPS effect)", "experimental": "Anti-inflammatory activity of the peptides was determined using eLUCidate™ HeLa TLR4/IL-8 Renilla Luciferase Reporter cell line (obtained from ASMBIO). eLUCidate™ HeLa cells were cultivated according to manufacturer instructions. eLUCidate™ HeLa cells were seeded in 96 wells plates at an initial 50,000 cells/well. The next day, media from wells was empty and cells were exposed to LPS from P. aeruginosa (from Sigma Aldrich) diluted in culture media at a final concentration of 10 ng/ml in the presence of increasing concentrations of peptides. Polymyxin B (PMB, from Sigma Aldrich) was used as positive control. After 6 h incubation at 37°C in an incubator containing 5% CO2, wells were empty and cells were lysed in 70 µl of PBS containing 1% Triton X100 for 15 min on ice. 50 µl of cell lysats were then transferred to white 96 wells plates containing 50 µl of Renilla Luciferase substrate (Genofax A from Yelen, Marseille France). Luminescence intensities were measured using microplate reader (Synergy Mx, Biotek). The luminescence values were normalized by the controls (buffer treated cells) and expressed as percent of LPS stimulation. […]"}, "E. coli [5]": {"system": "E. coli", "details": "Konno et al., Peptides 2006; cited from earlier work"}, "P. aeruginosa [6]": {"system": "P. aeruginosa", "details": "Konno et al., Peptides 2006; cited from earlier work"}}, "note": "Values joined by “and” are separate entries in the source; they are usually repeats but may differ in a detail not shown here. Equal entries are not always repeated. Ends that are not written are not given here.", "data": [{"substance": "ILKAIKKLLKN-NH2 [LTX-gallicune-1 (I1N11)]", "values": [{"measurement": "hemolytic activity", "setting": "human erythrocytes; at 1mM", "value": "not hemolytic"}, {"measurement": "hemotoxicity: no toxicity towards red blood cells up to", "setting": "human erythrocytes; highest concentration tested", "value": "> 10", "unit": "mM"}, {"measurement": "times less toxic (hemotoxic) than Gallicus-CP", "setting": "human erythrocytes; human erythrocytes, Fig 3", "value": 1000, "unit": "times"}, {"measurement": "MIC against S. aureus", "setting": "S. aureus", "value": "≥ 100", "unit": "µM"}, {"measurement": "MIC (µM) E. coli", "setting": "E. coli [1]", "value": 6.25, "unit": "µM"}, {"measurement": "MIC against E. coli", "setting": "E. coli [1]", "value": "> 50", "unit": "µM"}, {"measurement": "MIC against B. subtilis", "setting": "B. subtilis", "value": 6.25, "unit": "µM"}, {"measurement": "MIC (µM) A.baumani", "setting": "A.baumani", "value": 100, "unit": "µM"}, {"measurement": "MIC against Candida albicans", "setting": "Candida albicans", "value": 50, "unit": "µM"}]}, {"substance": "ILSAILGLLKNL-NH2 [Gallicus-CP(I1L12)]", "values": [{"measurement": "50% MHC (concentration inducing 50% hemolysis of human erythrocytes)", "setting": "human erythrocytes", "value": 10, "unit": "µM"}, {"measurement": "MIC (µM) P. aeruginosa", "setting": "P. aeruginosa [2]", "value": 100, "unit": "µM"}, {"measurement": "minimal inhibitory concentration (MIC)", "setting": "[3]", "value": "1.56 to 100", "unit": "µM"}]}, {"substance": "Polymyxin B [PMB]", "values": [{"measurement": "IC50", "setting": "[4]", "value": "57 nM and 57.6 nM"}]}, {"substance": "eumenitin", "values": [{"measurement": "effective concentration against E. coli", "setting": "E. coli [5]", "value": 6, "unit": "µM"}, {"measurement": "effective concentration against P. aeruginosa", "setting": "P. aeruginosa [6]", "value": 30, "unit": "µM"}]}]}
